Test system: AD-MSCs
Assay: MyoD reporter (luciferase) in AD-MSCs, myogenic differentiation
Type: cell-based, human
Details: 10^8 EVs per ml, with or without IGF, HGF, PDGF, versus untreated control
Description: The effects of muscle cell derived extracellular vesicles (EVs) on the myogenic differentiation of MSCs was analyzed using a myoD reporter tagged to luciferase. Human satellite cells, myotubes and fibroblasts were grown in culture and EVs were isolated from each. MSCs were isolated from adipose tissue (AD-MSCs) and were transfected with the MyoD reporter. The cells grown in culture were treated with EVs (10^8/ml) for 5 days and the luciferase activity was determined. […] Thus, the vesicles from these two cell types are effective at inducing myogenic differentiation.
Next, EVs were compared to the use of growth factors and the effect of combining EVs with growth factors on myogenic differentiation was tested. The same MyoD reporter was employed and MSCs were cultured with 10^8 EVs (from satellite cells or fibroblasts) per ml of culture media. A no EV control was also performed. The EVs were also added in the presence of three different growth factors, IGF, HGF and PDGF or in the combined presence of all three growth factors. […]
Finally, human primary myotubes were growth in culture and EVs and membrane-bound vesicles (MBVs) were harvested every 3 days. […] The vesicles were added to the culture of MSCs (adipose derived, AD; or chorionic placenta derived, CH) at a concentration of 10^8 per ml of culture and myogenic differentiation was again monitored with a MyoD reporter. […]

| Substance | MyoD reporter activity |
| --- | --- |
| PDGF | less than a doubling of reporter activity |
| HGF: hepatocyte growth factor | less than a doubling of reporter activity |

Reference: US20250250545A1, “MSCS AND EXTRACELLULAR VESICLES” (EXOSTEM BIOTEC LTD., priority 2021, published 2025)
